Laboratory results reported in PMC11123841, “Discovery and Synthesis of Hydroxy-L-Proline Blockers of the Neutral Amino Acid Transporters SLC1A4 (ASCT1) and SLC1A5 (ASCT2)” (Molecules, 2024).
“Also recorded” adds a separate entry of the source.

Columns and labels:
SLC38A1 (ATA1) = target: T1, SLC38A1 (ATA1) (Homo sapiens, UniProt Q9H2H9); experiment: TEVC electrogenic coupled currents in oocytes; type: cell-based; conditions: 100 µM L-alanine, 3 µM BPOHP
T1 construct: expressed in transfected cells; host or cells: Xenopus laevis oocytes (cRNA injection)
T1 sequence (Q9H2H9 1-487): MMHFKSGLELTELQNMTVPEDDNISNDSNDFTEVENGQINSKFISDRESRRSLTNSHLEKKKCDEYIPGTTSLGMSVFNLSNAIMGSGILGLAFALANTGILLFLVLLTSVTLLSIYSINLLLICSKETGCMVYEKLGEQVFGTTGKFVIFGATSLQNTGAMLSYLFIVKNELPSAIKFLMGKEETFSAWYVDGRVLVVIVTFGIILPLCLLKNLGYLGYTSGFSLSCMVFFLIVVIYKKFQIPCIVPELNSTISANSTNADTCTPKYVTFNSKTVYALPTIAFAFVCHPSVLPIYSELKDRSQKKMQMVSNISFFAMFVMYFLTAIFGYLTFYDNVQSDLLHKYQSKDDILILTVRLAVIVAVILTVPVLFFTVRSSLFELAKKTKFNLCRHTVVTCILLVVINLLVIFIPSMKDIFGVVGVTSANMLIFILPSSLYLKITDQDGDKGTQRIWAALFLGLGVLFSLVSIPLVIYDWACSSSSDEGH
Procedure: BPOHP activity was evaluated against the glutamate transporters paralogs within the SLC1A gene family (SLC1A 1–3) as well as at neutral amino acid transporters that share common ligand substrates with the SLC1 family including SLC38A1,2, and 4 (ATA1, ATA2, ATA3) and heteromeric transporters SLC7A10+SLC3A2 (asc-1/4f2). […] Finally, radiolabeled [^3H]D-serine uptake was used to assess the electroneutral SLC7A10+SLC3A2 transporter, in which 10 µM BPOHP had no effect (Figure S3).
Uptake was halted by washing 3 times with 4 °C ND96 buffer. Oocytes were then lysed in 0.1% Triton X-100, and radioactivity was counted via liquid scintillation. Dose response curves were generated by fitting fractional inhibition (I) to the expression I = Imax × [inhibitor]/([inhibitor] + IC50).
Two-electrode voltage clamp (TEVC) transporter currents were recorded with a GeneClamp 500 amplifier and Digidata 1320A analog–digital interface (Molecular Devices, San Jose, CA, USA). […] Data were acquired with Axograph (v1.7.6) and LabChart (v7) and analyzed with Kaleidagraph software (v4.1) (Synergy, Reading, PA, USA). Uncoupled anion currents associated with the transport of substrate and block of SLC1A4 or SLC1A5 mediated leak conductance were recorded in the presence of Ringer with 50% substitution of NaCl by NaSCN to amplify the non-transported anion conductance. […]

SLC1A4 = target: T2, SLC1A4 (Homo sapiens, UniProt P43007); experiment: Schild analysis of L-alanine dose responses; type: cell-based
T2 construct: expressed in transfected cells; host or cells: Xenopus laevis oocytes (cRNA injection)
T2 sequence (P43007 1-532): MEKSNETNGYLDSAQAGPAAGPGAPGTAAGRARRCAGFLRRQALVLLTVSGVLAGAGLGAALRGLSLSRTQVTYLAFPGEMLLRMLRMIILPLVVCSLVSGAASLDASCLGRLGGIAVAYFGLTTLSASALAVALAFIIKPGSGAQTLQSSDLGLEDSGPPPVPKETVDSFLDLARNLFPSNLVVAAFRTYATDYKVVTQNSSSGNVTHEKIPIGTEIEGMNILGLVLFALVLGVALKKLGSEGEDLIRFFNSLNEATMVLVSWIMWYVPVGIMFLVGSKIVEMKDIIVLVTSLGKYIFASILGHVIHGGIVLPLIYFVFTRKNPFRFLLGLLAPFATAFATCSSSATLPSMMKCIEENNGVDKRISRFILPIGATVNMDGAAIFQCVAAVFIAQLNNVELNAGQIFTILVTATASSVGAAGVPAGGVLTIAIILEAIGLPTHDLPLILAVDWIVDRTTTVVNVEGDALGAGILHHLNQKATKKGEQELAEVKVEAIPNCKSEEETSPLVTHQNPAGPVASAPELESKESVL
Procedure: We further characterized the highest affinity blocker discovered from our AHPC series, biphenyl-O-hydroxy-proline (BPOHP, 14e). […] A respective right shift in the substrate dose response was apparent with increasing concentrations of BPOHP (Figure 4C).
Two-electrode voltage clamp (TEVC) transporter currents were recorded with a GeneClamp 500 amplifier and Digidata 1320A analog–digital interface (Molecular Devices, San Jose, CA, USA). Electrodes (0.2–1.0 MΩ) were filled with 3M KCl and the recording chamber was grounded with an agar bridge. Data were acquired with Axograph (v1.7.6) and LabChart (v7) and analyzed with Kaleidagraph software (v4.1) (Synergy, Reading, PA, USA). Uncoupled anion currents associated with the transport of substrate and block of SLC1A4 or SLC1A5 mediated leak conductance were recorded in the presence of Ringer with 50% substitution of NaCl by NaSCN to amplify the non-transported anion conductance.
Figure 4 BPOHP 14e characterization as a competitive, non-transportable inhibitor. […] (D) A Schild plot showing a linear relationship between [L-ala] dose ratio and four different concentrations of BPOHP, consistent with competitive inhibition.

- Kb (SLC1A4): 120 nM
SMILES: O=C(O)[C@H]1NC[C@@H](OCc2ccc(-c3ccccc3)cc2)[C@@H]1O [14e]
- block of L-alanine current (SLC38A1 (ATA1)): no effect; also recorded: no discernible block; also recorded: no inhibition was detected
